Experimental findings from patent US20240124460A1, “METHODS AND COMPOSITIONS FOR TARGETED PROTEIN DEGRADATION” (Ranok Therapeutics (Hangzhou) Co. Ltd., priority 2020, published 2024) are described below.

What is called IC50 is the concentration that gives 50% inhibition.

The target in one test is T1, HSP90α protein (Homo sapiens, UniProt P07900).
T1 construct: purchased BPS Bioscience #50298
The test can be described thus: HSP90α-binding FP (FITC) assay. The settings on record: FP competition with FITC-geldanamycin. The method, then: Binding of test compounds to HSP90α protein was measured by fluorescent polarization (FP) using the HSP90α (N-terminal) Assay Kit (BPS Bioscience, #50298), following the manufacturer's instructions, except as noted. Fluorescently labeled HSP90-binding compounds, either the provided FITC-geldanamycin (5 nM final concentration) or RNK04010, a triazolone-based HSP90 binding small molecule labeled with BODIPY through a piperazine-phenyl linker (5 nM final concentration) were employed. A 2.5-fold serial dilution of each test compound ranging from 20 μM to 5.2 nM was assayed for binding to HSP90α. After the final step of adding HSP90α protein to each assay well, plates were mixed by brief shaking, incubated at 25° C. for 120 min for FITC-geldanamycin or 300 min for RNK04010, and fluorescence was measured using a PerkinElmer EnVision Plate Reader.

The next test has as its system ERBB2. Description: ERBB2 (HER2) flow cytometry protein degradation assay in BT-474 cells. The test is classed as cell-based, human. Particulars: DC50, BT-474 cells, 24 hr. An outline of the steps:
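BT-474 cells trypsinised after compound treatment and stained with PE-conjugated anti-ERBB2 antibody, 30 min at 25° C in the dark, then fixed in 1% paraformaldehyde for flow cytometry. % inhibition = 100−(D−B)/(S−B)*100, using treated, untreated-stained and unstained cell fluorescence.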

Test [1] deals with MV-4-11 human acute myeloid leukemia. Description: MV-4-11 CCK-8 proliferation assay. The class given is cell-based. Particulars: Homo sapiens, MV4-11; MV-4-11 cells, 72 hr. The procedure, abridged: (§1)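 3-fold dilution series, 20 μM–1.02 nM; ATCC culture conditions; CCK-8 absorbance read-out; % inhibition = 100 − (D−B)/(S−B)×100, S = DMSO cells, B = medium + DMSO, no cells.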
Background: Formazan colour is commonly taken as a measure of viable cells.

In test [2] the test system is U-87 MG human glioblastoma. Description: U87 MG CCK-8 proliferation assay. Particulars: Homo sapiens, U-87 MG, 72 h, U-87 MG cells, read-out: U87MG CCK-8. The test is classed as cell-based. An outline of the steps:
as §1

The target of test [3] is T2, MAPK7 (Homo sapiens, UniProt Q13164). Description: MAPK7 kinase assay (ADP-Glo). More on the design: purchased Carna Biosciences #04-146. The settings on record: ATP 340 μM. The test is classed as biochemical. As to the method: The inhibition of MAPK7 kinase activity by test compounds was measured by the ADP-Glo Kinase Assay (Promega, #V6930), following the manufacturer's instructions, except as noted. 3-fold serial dilutions of each test compound were prepared ranging from 50 μM to 2.54 nM. Also, as a positive control, a 4-fold serial dilution of the MAPK7 inhibitor, XMD17-109 (MedChemExpress, #HY-15665) was prepared ranging from 10 μM to 0.04 nM. In brief, in 384-well plates, test compounds were added to the kinase reaction mix containing recombinant MAPK7 protein (Carna Biosciences, #04-146; 20 nM final concentration), myelin basic protein (SignalChem Biotech, #M42-54G; 0.1 mg/ml final concentration) and ATP (340 μM final concentration), then mixed by shaking and incubated with ADP-Glo Reagent and Kinase Detection Reagent. Luminescence was measured on a BioTek plate reader.
Lumpositive: The average ratio for 10 wells of positive controls (10 μM XMD17-109) across the plate.
Lumvehicle: The average ratio for 10 wells of negative controls (0.5% DMSO) across the plate.
(In general: In ADP-Glo the light output rises with the ADP produced.)

In test [4] the target is T2, MAPK7. Description: MAPK7 Western blot protein degradation assay in U-87 MG cells. The test is classed as cell-based. More on the design: U-87 MG human glioblastoma cells, which express MAPK7; endogenous in cells; host or cells: U-87 MG. The settings on record: 48 hr. As to the method:
U-87 MG human glioblastoma cells were seeded in 6- or 12-well tissue culture plates, and after 1 hr, test compounds were added at various concentrations and incubated at 37° C./5% CO2 for 48 hr. Cells were then washed with cold PBS, aspirated and cold RIPA buffer containing a protease/phosphatase inhibitor cocktail was added to lyse cells. After centrifugation, the total protein concentrations of cell lysates were determined using the BCA protein assay. Samples were normalized for equivalent protein concentrations, 5×SDS-PAGE loading buffer added and denatured at 100° C. for 10 min. 20 μl of each sample/well was loaded on a SDS-PAGE gel and electrophoresed for 20 min at 80 V, then 120 V for 1.5 hr. Gels were then electroblotted to nitrocellulose membranes using a wet-transfer method at 250 mA for 2.5 hr. Membranes were incubated with blocking buffer for 1 hr and washed 3 times with TBST for 5 min. Membranes were then incubated with anti-MAPK7 (anti-ERK5; Cell Signaling Technology, #12950) and anti-3-Actin (Cell Signaling Technology, #3700) monoclonal antibodies diluted in blocking buffer at 4° C. overnight per the manufacturer's recommendations. After washing 3 times, blots were incubated with appropriately labeled secondary antibodies for 1 hr at room temperature and washed again. Fluorescence imaging and quantitation was performed using a LI-COR Odyssey. Results was analyzed using GraphPad Prism 7 software.
For orientation: Immunoblotting shows a protein as a band on a membrane.

Structures are written as SMILES.

T2 sequence (Q13164 whole entry): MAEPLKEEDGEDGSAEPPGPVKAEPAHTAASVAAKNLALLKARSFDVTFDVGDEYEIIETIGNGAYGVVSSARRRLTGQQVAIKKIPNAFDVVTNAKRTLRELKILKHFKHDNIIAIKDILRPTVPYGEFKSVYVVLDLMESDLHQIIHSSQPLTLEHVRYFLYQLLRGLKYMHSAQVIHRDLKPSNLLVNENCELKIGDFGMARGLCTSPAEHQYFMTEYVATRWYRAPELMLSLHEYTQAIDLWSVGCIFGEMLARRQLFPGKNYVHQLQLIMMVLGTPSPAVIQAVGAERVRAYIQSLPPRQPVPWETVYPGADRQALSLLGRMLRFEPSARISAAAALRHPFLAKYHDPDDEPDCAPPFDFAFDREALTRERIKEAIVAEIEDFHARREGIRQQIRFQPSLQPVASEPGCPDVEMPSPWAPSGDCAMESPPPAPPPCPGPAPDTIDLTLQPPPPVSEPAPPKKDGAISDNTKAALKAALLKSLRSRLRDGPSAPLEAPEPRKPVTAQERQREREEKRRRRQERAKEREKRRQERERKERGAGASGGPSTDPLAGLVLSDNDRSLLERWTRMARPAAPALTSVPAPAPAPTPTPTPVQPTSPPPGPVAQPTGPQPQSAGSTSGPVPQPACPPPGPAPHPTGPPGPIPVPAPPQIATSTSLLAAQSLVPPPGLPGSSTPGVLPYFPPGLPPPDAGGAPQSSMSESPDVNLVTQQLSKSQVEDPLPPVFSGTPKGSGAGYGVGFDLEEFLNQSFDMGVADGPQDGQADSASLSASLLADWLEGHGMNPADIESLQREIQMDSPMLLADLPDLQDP

In the case of `CCOc1cc(N2CCC(OCC(=O)NCCOCCN3CCN(Cc4ccc(-n5c(O)nnc5-c5cc(C(C)C)c(O)cc5O)cc4)CC3)CC2)ccc1Nc1ncc2c(n1)N(C)c1ccccc1C(=O)N2C` [Compound 002, N-(2-(2-(4-(4-(3-(2,4-dihydroxy-5-isopropylphenyl)-5-hydroxy-4H-1,2,4-triazol-4-yl)benzyl)piperazin-1-yl)ethoxy)ethyl)-2-((1-(4-((5,11-dimethyl-6-oxo-6,11-dihydro-5H-benzo[e]pyrimido[5,4-b][1,4]diazepin-2-yl)amino)-3-ethoxyphenyl)piperidin-4-yl)oxy)acetamide], the IC50 on HSP90α protein is under 100 nM. Further, the ERBB2 degradation result in the test with ERBB2 is “B (DC50 = 100-1000 nM)”. In addition, the EC50 in test [1] was under 100 nM; in test [2] it was 100 to 1000 nM.

As for `CCOc1cc(N2CCC(C(=O)N3CCC(CN4CCN(Cc5ccc(-n6c(C(=O)NC(C)C(F)(F)F)nnc6-c6cc(CC)c(O)cc6OC)cc5)CC4)CC3)CC2)ccc1Nc1ncc2c(n1)N(S(C)(=O)=O)c1ccccc1C(=O)N2C` (centres unmarked) [Compound 142, 4-(4-((4-((1-(1-(3-ethoxy-4-((5-methyl-11-(methylsulfonyl)-6-oxo-6,11-dihydro-5H-benzo[e]pyrimido[5,4-b][1,4]diazepin-2-yl)amino)phenyl)piperidine-4-carbonyl)piperidin-4-yl)methyl)piperazin-1-yl)methyl)phenyl)-5-(5-ethyl-4-hydroxy-2-methoxyphenyl)-N-(1,1,1-trifluoropropan-2-yl)-4H-1,2,4-triazole-3-carboxamide], on MAPK7 [3], the IC50 lay in the range of 100 to 1000 nM.

The compound `CCOc1cc(N2CCC(C(=O)NCCOCc3ccc(-n4c(O)nnc4-c4cc(C(C)C)c(O)cc4O)cc3)CC2)ccc1Nc1ncc2c(n1)N(C)c1ccccc1C(=O)N2C` [Compound 005, N-(2-((4-(3-(2,4-dihydroxy-5-isopropylphenyl)-5-hydroxy-4H-1,2,4-triazol-4-yl)benzyl)oxy)ethyl)-1-(4-((5,11-dimethyl-6-oxo-6,11-dihydro-5H-benzo[e]pyrimido[5,4-b][1,4]diazepin-2-yl)amino)-3-ethoxyphenyl)piperidine-4-carboxamide] gave an IC50 at HSP90α protein of 100 to 1000 nM. Moreover, the ERBB2 degradation entry with ERBB2 is “B (DC50 = 100-1000 nM)”. In addition, the EC50 in test [1] and in test [2] was under 100 nM throughout. In addition, the “MAPK7 degradation (30 nM)” value at MAPK7 [4] (30 nM) was “C (< 33% degradation)”. Moreover, at MAPK7 [4] (100 nM), the “MAPK7 degradation (100 nM)” value was “C (< 33% degradation)”. In addition, the “MAPK7 degradation (1000 nM)” value at MAPK7 [4] (1000 nM) is “A (>66% degradation)”.

`CCOc1cc(N2CCC(C(=O)N3CCC(N4CCN(C(=O)O[C@H]5CC[C@H](Nc6cc(-n7nc(C(F)(F)F)c8c7CC(C)(C)CC8=O)ccc6C(N)=O)CC5)CC4)CC3)CC2)ccc1Nc1ncc2c(n1)N(C)c1ccccc1C(=O)N2C` [Compound 125, (1R,4R)-4-((2-carbamoyl-5-(6,6-dimethyl-4-oxo-3-(trifluoromethyl)-4,5,6,7-tetrahydro-1H-indazol-1-yl)phenyl)amino)cyclohexyl 4-(1-(1-(4-((5,11-dimethyl-6-oxo-6,11-dihydro-5H-benzo[e]pyrimido[5,4-b][1,4]diazepin-2-yl)amino)-3-ethoxyphenyl)piperidine-4-carbonyl)piperidin-4-yl)piperazine-1-carboxylate] yielded an IC50 on HSP90α protein of over 1000 nM. Further, the EC50 in test [1] and in test [2] was over 1000 nM throughout.

The compound `CCOc1cc(N2CCC(OCC(=O)N3CCN(Cc4ccc(-n5c(O)nnc5-c5cc(C(C)C)c(O)cc5O)cc4)CC3)CC2)ccc1Nc1ncc2c(n1)N(C)c1ccccc1C(=O)N2C` [Compound 001, 2-((4-(4-(2-(4-(4-(3-(2,4-dihydroxy-5-isopropylphenyl)-5-hydroxy-4H-1,2,4-triazol-4-yl)benzyl)piperazin-1-yl)-2-oxoethoxy)piperidin-1-yl)-2-ethoxyphenyl)amino)-5,11-dimethyl-5H-benzo[e]pyrimido[5,4-b][1,4]diazepin-6(11H)-one] had an IC50 on HSP90α protein of under 100 nM. Also, the ERBB2 degradation result in the test with ERBB2 is listed as “C (DC50 > 1000 nM)”. Moreover, the EC50 was 100 to 1000 nM in test [1] and over 1000 nM in test [2].

Consider `CCOc1cc(N2CCC(C(=O)NCCOc3cccc(CN(C)Cc4ccc(-n5c(O)nnc5-c5cc(C(C)C)c(O)cc5O)cc4)c3)CC2)ccc1Nc1ncc2c(n1)N(C)c1ccccc1C(=O)N2C` [Compound 007, N-(2-(3-(((4-(3-(2,4-dihydroxy-5-isopropylphenyl)-5-hydroxy-4H-1,2,4-triazol-4-yl)benzyl)(methyl)amino)methyl)phenoxy)ethyl)-1-(4-((5,11-dimethyl-6-oxo-6,11-dihydro-5H-benzo[e]pyrimido[5,4-b][1,4]diazepin-2-yl)amino)-3-ethoxyphenyl)piperidine-4-carboxamide], for which the IC50 on HSP90α protein lay in the range of 100 to 1000 nM. The ERBB2 degradation result with ERBB2 is recorded as “B (DC50 = 100-1000 nM)”. The EC50 in test [1] was under 100 nM; in test [2] it was 100 to 1000 nM.

For `CCOc1cc(N2CCC(C(=O)NCCOCCOCCOc3ccc(-n4c(O)nnc4-c4cc(C(C)C)c(O)cc4O)cc3)CC2)ccc1Nc1ncc2c(n1)N(C)c1ccccc1C(=O)N2C` [Compound 016, N-(2-(2-(2-(4-(3-(2,4-dihydroxy-5-isopropylphenyl)-5-hydroxy-4H-1,2,4-triazol-4-yl)phenoxy)ethoxy)ethoxy)ethyl)-1-(4-((5,11-dimethyl-6-oxo-6,11-dihydro-5H-benzo[e]pyrimido[5,4-b][1,4]diazepin-2-yl)amino)-3-ethoxyphenyl)piperidine-4-carboxamide], on HSP90α protein, the IC50 fell in the range of 100 to 1000 nM. For the same compound, the EC50 in test [1] is under 100 nM; in test [2], 100 to 1000 nM.

The compound `CCOc1cc(N2CCC(C(=O)N3CCC(CN4CCN(C(=O)c5ccc(-n6c(O)nnc6-c6cc(C(C)C)c(O)cc6O)cc5)CC4)CC3)CC2)ccc1Nc1ncc2c(n1)N(S(C)(=O)=O)c1ccccc1C(=O)N2C` [Compound 127, 2-((4-(4-(4-((4-(4-(3-(2,4-dihydroxy-5-isopropylphenyl)-5-hydroxy-4H-1,2,4-triazol-4-yl)benzoyl)piperazin-1-yl)methyl)piperidine-1-carbonyl)piperidin-1-yl)-2-ethoxyphenyl)amino)-5-methyl-11-(methylsulfonyl)-5,11-dihydro-6H-benzo[e]pyrimido[5,4-b][1,4]diazepin-6-one] registered an IC50 on HSP90α protein of 100 to 1000 nM. For the same compound, the EC50 in test [1] and in test [2] was 100 to 1000 nM each time.

At HSP90α protein, `CCOc1cc(N2CCC(C(=O)NCCOCCOCCOc3ccc(-n4c(O)nnc4-c4cc(CC)c(O)cc4O)cc3)CC2)ccc1Nc1ncc2c(n1)N(C)c1ccccc1C(=O)N2C` [Compound 017, 1-(4-((5,11-dimethyl-6-oxo-6,11-dihydro-5H-benzo[e]pyrimido[5,4-b][1,4]diazepin-2-yl)amino)-3-ethoxyphenyl)-N-(2-(2-(2-(4-(3-(5-ethyl-2,4-dihydroxyphenyl)-5-hydroxy-4H-1,2,4-triazol-4-yl)phenoxy)ethoxy)ethoxy)ethyl)piperidine-4-carboxamide] showed an IC50 of 100 to 1000 nM. For the same compound, the EC50 in test [1] is under 100 nM; in test [2], over 1000 nM.
